This is an account of results in patent US20210130460A1, “ANTI-CD19 THERAPY IN COMBINATION WITH LENALIDOMIDE FOR THE TREATMENT OF LEUKEMIA OR LYMPHOMA” (MORPHOSYS AG, priority 2019, published 2021).

Read-outs that look alike come from different tables or passages of the source.

Data set [1] deals with relapsed or refractory DLBCL. Conditions: cited from earlier work.
Data set [2] is described as follows: L-MIND phase 2 study: safety (adverse events).
Procedure: MOR00208 was administered intravenously at a dose of 12 mg/kg, over approximately 2 hours. For cycles 1 to 3, MOR00208 was administered weekly on days 1, 8, 15, and 22; an additional loading dose was administered on day 4 of cycle 1. […] Patients self-administered lenalidomide orally, starting with 25 mg daily on days 1-21 of each 28-day cycle. A step-wise dose reduction (decrease by 5 mg/day in each step, only once per cycle, without re-escalation) of lenalidomide was permitted in case of protocol-defined toxicities.
Efficacy analyses are based on the full analysis set comprising all patients who received at least one dose of both MOR00208 and lenalidomide; safety analyses were based on those who received at least one dose of either study medication.

Take `Nc1cccc2c1CN(C1CCC(=O)NC1=O)C2=O` (stereo not shown) [lenalidomide]: in data set [1] (prior studies in similar populations), the Objective response rate is given as 28%.
With “MOR00208: Fc-enhanced humanized anti-CD19 monoclonal antibody, sequences in Table 1 (SEQ ID NO: 1-12)”, the Objective response rate in data set [1] (single-agent, relapsed or refractory DLBCL (Ann. Oncol. 29, 1266-1272, 2018)) is listed as 26%. Moreover, in data set [2] (MOR00208 monotherapy after discontinuation of lenalidomide, 6/51 patients), the “Grade 3 or 4 neutropenia” value is recorded as 11.8%. The “Adverse events of grade 3 or 4” value in data set [2] (after lenalidomide discontinuation, 15/51 patients) is 29.4%.
